“And” between values parts separate entries of the source, which are not always exact repeats. Identical values can stand only once.
Experiment: molar heat capacity at constant pressure
Conditions: 101.33 kPa, Crystal, Small (less than 1 g) adiabatic calorimetry

O.O.O.O.O.O=S(=O)([O-])[O-].[Cu+2] [copper(II) sulfate pentahydrate]
Conditions | molar heat capacity at constant pressure
195.86 K | 210.72 J/K/mol
196.02 K | 208.8 J/K/mol
196.2 K | 210.85 J/K/mol
196.62 K | 212.01 J/K/mol
196.78 K | 210.59 J/K/mol
196.97 K | 211.56 J/K/mol
197.34 K | 208.77 J/K/mol
197.52 K | 212.45 J/K/mol
197.54 K | 211.37 J/K/mol
197.92 K | 209.01 J/K/mol
198.12 K | 212.62 J/K/mol
198.28 K | 211.94 J/K/mol
198.86 K | 213.01 J/K/mol
199.03 K | 212.84 J/K/mol
199.23 K | 213.44 J/K/mol
199.77 K | 213.38 J/K/mol
199.89 K | 214.1 J/K/mol
200 K | 210.9 J/K/mol
200.02 K | 210.29 J/K/mol
200.18 K | 214.5 J/K/mol
200.35 K | 215.02 J/K/mol
200.44 K | 211.49 J/K/mol
200.5 K | 214.14 J/K/mol
201.23 K | 214.77 J/K/mol
201.49 K | 215.23 J/K/mol
201.51 K | 215.2 J/K/mol
201.96 K | 215.31 J/K/mol
202.12 K | 212.11 J/K/mol
202.61 K | 217.02 J/K/mol
202.68 K | 216.55 J/K/mol
202.83 K | 216.31 J/K/mol
203.14 K | 217.49 J/K/mol
203.42 K | 216.87 J/K/mol
203.52 K | 214.16 J/K/mol
203.74 K | 217.35 J/K/mol
204.14 K | 217.62 J/K/mol
204.2 K | 218.19 J/K/mol
204.22 K | 214.4 J/K/mol
204.87 K | 218.11 J/K/mol and 218.14 J/K/mol
205.53 K | 218.8 J/K/mol
205.59 K | 218.93 J/K/mol
205.99 K | 219.33 J/K/mol
206.31 K | 219.39 J/K/mol
206.33 K | 215.55 J/K/mol
206.4 K | 220.52 J/K/mol
206.59 K | 216.64 J/K/mol
206.85 K | 220.61 J/K/mol
207.02 K | 220.58 J/K/mol
207.11 K | 220.48 J/K/mol
207.81 K | 220.88 J/K/mol
208.18 K | 221.52 J/K/mol
208.23 K | 222.38 J/K/mol
208.45 K | 218.01 J/K/mol
208.52 K | 222.44 J/K/mol
209.24 K | 222.92 J/K/mol
209.37 K | 222.88 J/K/mol
209.5 K | 223.33 J/K/mol
209.64 K | 219.18 J/K/mol
209.68 K | 223.6 J/K/mol
209.96 K | 223.05 J/K/mol
210 K | 219.4 J/K/mol
210.49 K | 223.26 J/K/mol
210.58 K | 219.18 J/K/mol
210.67 K | 223.74 J/K/mol
210.83 K | 223.72 J/K/mol
211.38 K | 224.39 J/K/mol
211.61 K | 224.89 J/K/mol
212.1 K | 224.82 J/K/mol
212.14 K | 225.35 J/K/mol
212.68 K | 221.85 J/K/mol
212.7 K | 220.97 J/K/mol
212.75 K | 225.67 J/K/mol
212.81 K | 225.63 J/K/mol
212.95 K | 226.54 J/K/mol
213.47 K | 226.67 J/K/mol
213.52 K | 226.64 J/K/mol
213.88 K | 226.4 J/K/mol
214.25 K | 227.02 J/K/mol
214.8 K | 227.75 J/K/mol
214.83 K | 222.9 J/K/mol
214.96 K | 227.58 J/K/mol
215 K | 227.95 J/K/mol
215.67 K | 228.21 J/K/mol
215.69 K | 224.43 J/K/mol
216.13 K | 230.23 J/K/mol
216.19 K | 228.74 J/K/mol
216.23 K | 229.64 J/K/mol
216.38 K | 229.09 J/K/mol
216.96 K | 224.83 J/K/mol
217.1 K | 229.55 J/K/mol
217.31 K | 230.09 J/K/mol
217.46 K | 230.34 J/K/mol
217.81 K | 229.9 J/K/mol
218.45 K | 231.22 J/K/mol
218.51 K | 230.59 J/K/mol
218.69 K | 227.07 J/K/mol
218.79 K | 231.49 J/K/mol
219.1 K | 226.58 J/K/mol
219.27 K | 231.87 J/K/mol
219.52 K | 232.65 J/K/mol
219.6 K | 231.9 J/K/mol
219.98 K | 232.07 J/K/mol
220 K | 228 J/K/mol
220.12 K | 232.93 J/K/mol
220.68 K | 232.63 J/K/mol
220.72 K | 233.3 J/K/mol
221.23 K | 229.07 J/K/mol
221.39 K | 233.36 J/K/mol
221.44 K | 233.44 J/K/mol
221.67 K | 229.65 J/K/mol
221.86 K | 234.58 J/K/mol
222.09 K | 234.58 J/K/mol
222.76 K | 235.19 J/K/mol
222.81 K | 235.64 J/K/mol and 235.01 J/K/mol
223 K | 235.73 J/K/mol
223.42 K | 230.15 J/K/mol
223.51 K | 235.25 J/K/mol
224.08 K | 236.48 J/K/mol
224.14 K | 236.55 J/K/mol
224.22 K | 235.98 J/K/mol
224.64 K | 232.13 J/K/mol
224.92 K | 236.68 J/K/mol
225.28 K | 237.03 J/K/mol
225.45 K | 237.85 J/K/mol
225.57 K | 231.89 J/K/mol
225.62 K | 237.74 J/K/mol
226.1 K | 239.21 J/K/mol
226.33 K | 238.26 J/K/mol
226.41 K | 238.72 J/K/mol
226.77 K | 238.57 J/K/mol
227.03 K | 238.58 J/K/mol
227.55 K | 239.68 J/K/mol
227.61 K | 234.56 J/K/mol
227.72 K | 233.69 J/K/mol
227.73 K | 239.34 J/K/mol
228.08 K | 239.61 J/K/mol
228.43 K | 239.99 J/K/mol
228.69 K | 240.1 J/K/mol
229.13 K | 241.13 J/K/mol
229.38 K | 242.74 J/K/mol and 240.91 J/K/mol
229.82 K | 241.69 J/K/mol
229.84 K | 241.43 J/K/mol
229.87 K | 235.54 J/K/mol
230 K | 236.5 J/K/mol
230.54 K | 237.24 J/K/mol
230.59 K | 242.26 J/K/mol
230.69 K | 242.63 J/K/mol
230.95 K | 243.17 J/K/mol
231.28 K | 242.67 J/K/mol
231.97 K | 243.3 J/K/mol
232 K | 244.22 J/K/mol
232.02 K | 238.28 J/K/mol
232.09 K | 244.43 J/K/mol
232.67 K | 243.85 J/K/mol
232.75 K | 246.09 J/K/mol
233.23 K | 245.48 J/K/mol
233.31 K | 244.86 J/K/mol
233.36 K | 244.3 J/K/mol

Reference: the NIST ThermoML archive (doi:10.1016/j.jct.2017.03.026)
